Target: Recombinant human factor D (Homo sapiens (Human), UniProt P00746)
Assay: Human Complement Factor D Assay: Method 1
Assay type: biochemical
Settings: Factor D inhibition, Method 1: 10 nM factor D, 1 hour incubation with compound at room temperature, substrate Z-Lys-thiobenzyl, fluorescence readout; read-out: IC50

Sequence of Recombinant human factor D (P00746 26-253): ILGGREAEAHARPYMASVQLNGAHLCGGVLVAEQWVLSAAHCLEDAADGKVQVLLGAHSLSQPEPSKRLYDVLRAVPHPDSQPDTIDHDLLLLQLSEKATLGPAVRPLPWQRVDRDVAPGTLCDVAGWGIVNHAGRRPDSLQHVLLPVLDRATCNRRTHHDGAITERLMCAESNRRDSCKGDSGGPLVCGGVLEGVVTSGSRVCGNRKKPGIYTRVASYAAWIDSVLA

Row | IC50 [nM] | Compound
1 | 119 | CC(=O)c1nn(CC(=O)N2[C@H](C(=O)N[C@@H]3C[C@H]3c3ccccc3)C[C@@]3(CO)C[C@@H]23)c2cnccc12 [Example 29, (1R,3S,5S)-2-[2-(3-Acetyl-pyrazolo[3,4-c]pyridin-1-yl)-acetyl]-5-hydroxymethyl-2-aza-bicyclo[3.1.0]hexane-3-carboxylic acid((1R,2S)-2-phenyl-cyclopropyl)-amide]
2 | 37 | CC(=O)c1nn(CC(=O)N2[C@H](C(=O)N[C@@H]3C[C@H]3c3ccccc3Cl)C[C@@]3(CO)C[C@@H]23)c2cnccc12 [Example 31, (1R,3S,5S)-2-[2-(3-Acetyl-pyrazolo[3,4-c]pyridin-1-yl)-acetyl]-5-hydroxymethyl-2-aza-bicyclo[3.1.0]hexane-3-carboxylic acid[(1R,2S)-2-(2-chloro-phenyl)-cyclopropyl]-amide]
3 | 326 | CC(=O)c1nn(CC(=O)N2[C@@H]3C[C@@H]3C[C@H]2C(=O)NC2CC2c2ccc(OC(F)F)cc2)c2cnccc12 (stereo partly drawn) [Example 32, (1R,3S,5R)-2-[2-(3-Acetyl-pyrazolo[3,4-c]pyridin-1-yl)-acetyl]-2-aza-bicyclo[3.1.0]hexane-3-carboxylic acid[2-(4-difluoromethoxy-phenyl)-cyclopropyl]-amide]
4 | 550 | CC(=O)c1nn(CC(=O)N2[C@@H]3C[C@@H]3C[C@H]2C(=O)NC2CC2c2cccc(C(F)(F)F)c2)c2cnccc12 (stereo partly drawn) [Example 33, (1R,3S,5R)-2-[2-(3-Acetyl-pyrazolo[3,4-c]pyridin-1-yl)-acetyl]-2-aza-bicyclo[3.1.0] hexane-3-carboxylic acid [2-(3-trifluoromethyl-phenyl)-cyclopropyl]-amide]
5 | 112 | CC(=O)c1nn(CC(=O)N2[C@@H]3C[C@@H]3C[C@H]2C(=O)NC2CC2c2ccc(C)c(C)c2)c2cnccc12 (stereo partly drawn) [Example 34, (1R,3S,5R)-2-[2-(3-Acetyl-pyrazolo[3,4-c]pyridin-1-yl)-acetyl]-2-aza-bicyclo[3.1.0] hexane-3-carboxylic acid [2-(3,4-dimethyl-phenyl)-cyclopropyl]-amide]
6 | 902 | CC(=O)c1nn(CC(=O)N2[C@@H]3C[C@@H]3C[C@H]2C(=O)NC2CC(c3ccccc3)C2)c2ncccc12 (stereo partly drawn) [Example 35, (1R,3S,5R)-2-[2-(3-Acetyl-pyrazolo[3,4-b]pyridin-1-yl)-acetyl]-2-aza-bicyclo[3.1.0] hexane-3-carboxylic acid (3-phenyl-cyclobutyl)-amide]
7 | 1060 | CC(=O)c1nn(CC(=O)N2[C@@H]3C[C@@H]3C[C@H]2C(=O)NC2CCC(c3ccccc3)CC2)c2cnccc12 (stereo partly drawn) [Example 37, (1R,3S,5R)-2-[2-(3-Acetyl-pyrazolo[3,4-c]pyridin-1-yl)-acetyl]-2-aza-bicyclo[3.1.0] hexane-3-carboxylic acid (4-phenyl-cyclohexyl)-amide]
8 | 3650 | NC(=O)c1nn(CC(=O)N2[C@@H]3C[C@@H]3C[C@H]2C(=O)N[C@H]2C[C@]2(F)c2ccccc2)c2cnccc12 [Example 42, 1-{2-[(1R,3S,5R)-3-((1S,2S)-2-Fluoro-2-phenyl-cyclopropylcarbamoyl)-2-aza-bicyclo[3.1.0]hex-2-yl]-2-oxo-ethyl}-1H-pyrazolo[3,4-c]pyridine-3-carboxylic acid amide]
9 | 214 | NC(=O)c1nn(CC(=O)N2[C@@H]3C[C@@H]3C[C@H]2C(=O)N[C@@H]2C[C@@]2(F)c2ccccc2)c2cnccc12 [Example 43, 1-{2-[(1R,3S,5R)-3-((1R,2R)-2-Fluoro-2-phenyl-cyclopropylcarbamoyl)-2-aza-bicyclo[3.1.0]hex-2-yl]-2-oxo-ethyl}-1H-pyrazolo[3,4-c]pyridine-3-carboxylic acid amide]

Further lines, the molecule ahead of its results:

Row | Compound | IC50 [nM]
10 | NC(=O)c1nn(CC(=O)N2[C@@H]3C[C@@H]3C[C@H]2C(=O)N[C@@H]2C[C@@]2(F)c2ccccc2)c2cc(F)c(F)cc12 [Example 25, 5,6-Difluoro-1-{2-[(1R,3S,5R)-3-((1R,2R)-2-fluoro-2-phenyl-cyclopropylcarbamoyl)-2-aza-bicyclo[3.1.0]hex-2-yl]-2-oxo-ethyl}-1H-indazole-3-carboxylic acid amide] | 110
11 | NC(=O)c1nn(CC(=O)N2[C@@H]3C[C@@H]3C[C@H]2C(=O)N[C@@H]2C[C@@]2(F)c2ccccc2)c2ccc(F)cc12 [Example 26, 5-Fluoro-1-{2-[(1R,3S,5R)-3-((1R,2R)-2-fluoro-2-phenyl-cyclopropylcarbamoyl)-2-aza-bicyclo[3.1.0]hex-2-yl]-2-oxo-ethyl}-1H-indazole-3-carboxylic acid amide] | 60
12 | CC(=O)c1nn(CC(=O)N2[C@H](C(=O)N[C@@H]3C[C@H]3c3ccccc3)C[C@@]3(CO)C[C@@H]23)c2ncccc12 [Example 28, (1R,3S,5S)-2-[2-(3-Acetyl-pyrazolo[3,4-b]pyridin-1-yl)-acetyl]-5-hydroxymethyl-2-aza-bicyclo[3.1.0]hexane-3-carboxylic acid((1R,2S)-2-phenyl-cyclopropyl)-amide] | 172
13 | NC(=O)c1nn(CC(=O)N2[C@H](C(=O)N[C@@H]3C[C@H]3c3ccccc3Cl)C[C@@]3(CO)C[C@@H]23)c2ccccc12 [Example 30, 1-(2-{(1R,3S,5S)-3-[(1R,2S)-2-(2-Chloro-phenyl)-cyclopropylcarbamoyl]-5-hydroxymethyl-2-aza-bicyclo[3.1.0]hex-2-yl}-2-oxo-ethyl)-1H-indazole-3-carboxylic acid amide] | 22
14 | CC(=O)c1nn(CC(=O)N2[C@@H]3C[C@@H]3C[C@H]2C(=O)NC2CC(c3ccccc3F)C2)c2ncccc12 (stereo partly drawn) [Example 36, (1R,3S,5R)-2-[2-(3-Acetyl-pyrazolo[3,4-b]pyridin-1-yl)-acetyl]-2-aza-bicyclo[3.1.0] hexane-3-carboxylic acid [3-(2-fluoro-phenyl)-cyclobutyl]-amide] | 466
15 | NC(=O)c1nn(CC(=O)N2[C@@H]3C[C@@H]3C[C@H]2C(=O)N[C@H]2C[C@]2(F)c2ccccc2)c2ccccc12 [Example 38, 1-{2-[(1R,3S,5R)-3-((1S,2S)-2-fluoro-2-phenyl-cyclopropylcarbamoyl)-2-aza-bicyclo[3.1.0]hex-2-yl]-2-oxo-ethyl}-1H-indazole-3-carboxylic acid amide] | 635
16 | NC(=O)c1nn(CC(=O)N2[C@@H]3C[C@@H]3C[C@H]2C(=O)N[C@@H]2C[C@@]2(F)c2ccccc2)c2ccccc12 [Example 39, 1-{2-[(1R,3S,5R)-3-((1R,2R)-2-fluoro-2-phenyl-cyclopropylcarbamoyl)-2-aza-bicyclo[3.1.0]hex-2-yl]-2-oxo-ethyl}-1H-indazole-3-carboxylic acid amide] | 48
17 | NC(=O)c1nn(CC(=O)N2C[C@H](F)C[C@H]2C(=O)N[C@@H]2C[C@H]2c2ccccc2F)c2cnccc12 [Example 40, 1-(2-{(2S,4R)-4-Fluoro-2-[(1R,2S)-2-(2-fluoro-phenyl)-cyclopropylcarbamoyl]-pyrrolidin-1-yl}-2-oxo-ethyl)-1H-pyrazolo[3,4-c]pyridine-3-carboxylic acid amide] | 142
18 | NC(=O)c1nn(CC(=O)N2C[C@H](F)C[C@H]2C(=O)N[C@H]2C[C@@H]2c2ccccc2F)c2cnccc12 [Example 41, 1-(2-{(2S,4R)-4-Fluoro-2-[(1S,2R)-2-(2-fluoro-phenyl)-cyclopropylcarbamoyl]-pyrrolidin-1-yl}-2-oxo-ethyl)-1H-pyrazolo[3,4-c]pyridine-3-carboxylic acid amide] | 1190
